The results in this text go back to ChEMBL document CHEMBL1137407, “Identification and optimization of anthranilic sulfonamides as novel, selective cholecystokinin-2 receptor antagonists” (J Med Chem, 2006).

The nature of series [1]: Clearance in Sprague-Dawley rat at 2 umol/kg, iv. The format is ADME, organism-based. As to conditions: in vivo.
Series [2] can be described thus: Stability in human liver microsome after 30 mins. As to conditions: liver microsomes, read-out: Stability. The format is ADME.
Series [3] can be described thus: Stability in human liver S9 fraction after 15 mins. The format is ADME. The note with it: read-out: Stability.
The nature of series [4]: Dissociation constant, pKa of the compound. The format is physicochemical.
Series [5] relates to Caco-2. The series is described as follows: Apparent permeability from apical to basolateral side of Caco-2 cells. The class given is ADME, cell-based. The note with it: human. (In general: Caco-2 cells form a polarised layer with tight junctions and transporters.)
The nature of series [6]: Stability in dog liver S9 fraction after 30 mins. The class given is ADME, Canis lupus familiaris. The note with it: read-out: Stability.
Series [7] can be described thus: Binding to alpha-glycoprotein. As to conditions: human, read-out: PPB (converted). The format is ADME.
The nature of series [8]: Stability in dog liver S9 fraction after 15 mins. The format is ADME, Canis lupus familiaris. As to conditions: read-out: Stability.
Series [9] has as its system Caco-2. The series is described as follows: Apparent permeability from basolateral to apical side of Caco-2 cells. The note with it: human. The class given is ADME, cell-based.
Series [10] can be described thus: Half life in Sprague-Dawley rat at 2 umol/kg, iv. The class given is ADME, organism-based. The note with it: in vivo.
Series [11] is described as follows: Partition coefficient, log D at pH 7.4. The format is physicochemical. As to conditions: octanol/water.
Series [12] has as its target T1, Gastrin/cholecystokinin type B receptor (Homo sapiens, UniProt P32239).
T1 sequence (P32239 whole entry): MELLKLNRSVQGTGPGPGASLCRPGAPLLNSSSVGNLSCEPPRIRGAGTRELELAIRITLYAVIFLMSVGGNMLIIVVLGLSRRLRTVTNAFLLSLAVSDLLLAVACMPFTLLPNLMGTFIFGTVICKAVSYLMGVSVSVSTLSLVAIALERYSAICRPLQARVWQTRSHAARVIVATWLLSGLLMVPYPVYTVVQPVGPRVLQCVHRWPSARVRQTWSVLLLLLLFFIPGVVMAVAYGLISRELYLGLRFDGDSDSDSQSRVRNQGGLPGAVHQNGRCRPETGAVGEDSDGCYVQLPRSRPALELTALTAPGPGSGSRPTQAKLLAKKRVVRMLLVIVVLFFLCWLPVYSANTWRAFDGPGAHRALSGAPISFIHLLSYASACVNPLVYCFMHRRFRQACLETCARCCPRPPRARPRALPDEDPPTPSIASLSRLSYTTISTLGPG
The note with it: read-out: Log Ki (converted).
Description: Displacement of [125I]CCK-8S from human CCK2R

A short description of series [13]: Oral bioavailability in Sprague-Dawley rat at 2 umol/kg, po. The note with it: in vivo. The format is ADME, organism-based.
Series [14] in a line: Stability in rat liver S9 fraction after 30 mins. The class given is ADME. The note with it: read-out: Stability.
A short description of series [15]: Stability in human liver microsome after 15 mins. The format is ADME. As to conditions: liver microsomes, read-out: Stability. For orientation: Liver microsomes are vesicles of endoplasmic reticulum, rich in cytochrome P450 enzymes.
The target of series [16] is T2, Cholecystokinin receptor type A (Homo sapiens, UniProt P32238).
T2 sequence (P32238 whole entry): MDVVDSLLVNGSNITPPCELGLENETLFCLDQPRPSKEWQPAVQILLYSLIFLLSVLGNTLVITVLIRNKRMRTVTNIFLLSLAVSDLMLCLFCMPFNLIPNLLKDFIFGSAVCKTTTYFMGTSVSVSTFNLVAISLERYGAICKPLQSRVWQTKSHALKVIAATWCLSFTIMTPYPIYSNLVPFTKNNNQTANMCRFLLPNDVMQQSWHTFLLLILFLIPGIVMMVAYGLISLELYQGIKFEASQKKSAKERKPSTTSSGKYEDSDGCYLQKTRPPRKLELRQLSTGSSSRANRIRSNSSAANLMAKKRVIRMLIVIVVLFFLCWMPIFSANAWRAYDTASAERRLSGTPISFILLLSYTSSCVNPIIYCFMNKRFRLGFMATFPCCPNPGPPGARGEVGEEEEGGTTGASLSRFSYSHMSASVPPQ
The note with it: read-out: Ki.
Description: Displacement of [125I]CCK-8S from human CCK1R

In series [17] the target is T3, Cholecystokinin receptor type A (Cavia porcellus) (UniProt Q63931).
T3 sequence (whole entry): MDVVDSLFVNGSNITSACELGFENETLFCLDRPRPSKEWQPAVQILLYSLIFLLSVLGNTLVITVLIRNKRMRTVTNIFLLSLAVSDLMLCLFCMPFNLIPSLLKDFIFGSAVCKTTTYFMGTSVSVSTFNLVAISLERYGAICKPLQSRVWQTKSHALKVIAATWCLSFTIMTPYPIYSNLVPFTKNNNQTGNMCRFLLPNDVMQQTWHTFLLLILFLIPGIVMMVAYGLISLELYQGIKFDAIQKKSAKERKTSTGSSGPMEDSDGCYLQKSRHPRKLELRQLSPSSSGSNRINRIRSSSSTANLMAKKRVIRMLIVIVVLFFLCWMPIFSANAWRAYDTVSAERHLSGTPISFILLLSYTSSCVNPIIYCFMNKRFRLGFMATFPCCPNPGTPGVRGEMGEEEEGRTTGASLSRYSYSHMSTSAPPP
The series is described as follows: Antagonizing effect on CCK-8S-stimulated guinea pig gall bladder smooth muscle contraction by Schild analysis. The class given is functional, tissue-based. The note with it: Muscle tissue.

Series [18] is described as follows: Stability in rat liver S9 fraction after 15 mins. The class given is ADME. The note with it: read-out: Stability.
The species named for series [19] is Cavia porcellus. The series is described as follows: Antagonizing effect on penta gastrin-stimulated guinea pig gastric smooth muscle contraction by Schild analysis. The format is functional, Muscle tissue.
Series [20] can be described thus: Stability in human liver S9 fraction after 30 mins. The class given is ADME. As to conditions: read-out: Stability.
Series [21] can be described thus: Half life in Beagle dog at 2 umol/kg, iv. The class given is ADME, organism-based, Canis lupus familiaris. The note with it: in vivo.
For series [22], the system named is Rattus norvegicus. The series is described as follows: Inhibition of pentagastrin-stimulated gastric acid secretion in iv dosed anesthetized rat measured as increase in pH. The class given is functional, Stomach.
A short description of series [23]: Stability in rat liver microsome after 30 mins. The format is ADME. The note with it: liver microsomes, read-out: Stability.
Series [24] in a line: Clearance in Beagle dog at 2 umol/kg, iv. The class given is ADME, organism-based, Canis lupus familiaris. The note with it: in vivo.
Series [25] can be described thus: Oral bioavailability in Beagle dog at 20 umol/kg, po. The class given is ADME, organism-based, Canis lupus familiaris. As to conditions: in vivo.
The species entered for series [26] is Rattus norvegicus. The series is described as follows: Plasma concentration in rat. The format is ADME, organism-based. As to conditions: in vivo.

Each structure is given as a SMILES string.

One may read the clearance as the volume of plasma or blood freed of the substance per unit of time. For orientation: pKa means the negative logarithm of the acid dissociation constant. A higher pKa goes with a group that holds its proton tightly. For orientation: Papp means the rate of passage across a membrane or cell layer, normalised by area and donor concentration. Broadly, the half-life is how long it takes for the measured level to halve. Read a high half-life as slow loss. As usually defined, the logD is the decadic logarithm of the distribution of all forms, ionised or not, between an organic phase and buffer at a given pH. High values mean a more lipophilic compound, low ones a more hydrophilic compound. The Ki is the dissociation constant of the complex between target and ligand, obtained from inhibition or displacement. As a reminder, the bioavailability is the share of a dose that reaches the circulation, judged against a reference dose that is usually intravenous. Low values mean poor availability, high ones good availability. The Kb is the affinity of an antagonist, worked out from how it opposes an agonist. Lower therefore signals a more potent antagonist. As a reminder, the pKb is the negative decadic logarithm of the Kb, by convention in mol/L. A low value points to a high Kb. Take `O=C(c1ccc(Cl)cc1NS(=O)(=O)c1cccc2nsnc12)N1CCCCC1`: the clearance in [1] was 20.8 mL/min/kg. The remaining at 0.5 h in series [2] stood at 3.9%; in series [6], 59%; in [14] it was 62%; in series [20], 51%. Further, the remaining at 0.25 h in series [3] amounted to 69%; in series [8], 78%; in series [15], 19%; in [18] it was 78%. In series [4], this compound had a pKa of 5.47. Besides, the Papp in [5] was 22.7 ×10⁻⁶ cm/s; in series [9], 1.8 ×10⁻⁶ cm/s. For the same compound, the fraction unbound in series [7] is 0.23. In series [10], the half-life is 9.6 min. The compound also had a logD in series [11] of 2.1. In addition, the results for the Ki in series [12] and in series [16] were 0.0398 µM and greater than 10 µM, respectively. In series [13], this compound registered a bioavailability of 42%. In series [17], this compound showed an antagonist dissociation constant (Kb) greater than 10 µM. For the same compound, the pKb is less than 5 in series [17] and 8.49 in [19].

Broadly, the ED50 is the midpoint of the dose-response relation. The low end stands for greater potency, the high end for weaker potency. Take `O=C(c1ccc(Br)cc1NS(=O)(=O)c1cccc2nsnc12)N1CCCCC1`: the results for the half-life in series [21] and in series [10] were 25.2 min and 15.6 min, respectively. For the same compound, the clearance in series [1] and in series [24] was 11.7 mL/min/kg each time. The remaining at 0.5 h in series [2] worked out at 15%; in series [23], 8%. For the same compound, the ED50 in series [22] is 0.6 mg/kg/h. In addition, the bioavailability in series [13] was 68%; in [25], 33%. In addition, in series [16], the Ki is greater than 10 µM. This compound gave a Kb in series [17] greater than 10 µM. The pKb in series [17] was less than 5; in [19] it was 8.8. Besides, in series [26], the concentration was determined as 1300 nM.
